Laboratory results published in paper PMC12198282, “Application of a high-density microelectrode array assay using a 3D human iPSC-derived brain microphysiological system model for in vitro neurotoxicity screening of environmental compounds” (Archives of Toxicology, 2025).
Read-outs that look alike come from different tables or passages of the source.

What was measured:
[1] = test system: human iPSC-derived 3D BrainSpheres; experiment: BrainSphere MEA assay (HD-MEA, 13-day exposure, concentration-response); format: cell-based; conditions: for AC50: concentration at 50% maximal activity, Supplement 3 prints it also for curves with hit call 0; for hitc Mean.Spheroid.Burst.Duration: key: 1 (active); 0 (inactive); for hitc Mean.Spheroid.Burst.ISI: key: 1 (active); 0 (inactive); for hitc Mean.Spheroid.Burst.Peak.Firing.Rate: key: 1 (active); 0 (inactive); for hitc Mean.Spheroid.Firing.Rate: key: 1 (active); 0 (inactive); for hitc Mean.Spheroid.IBI: key: 1 (active); 0 (inactive); for hitc Mean.Spheroid.Nonburst.ISI: key: 1 (active); 0 (inactive); for hitc Mean.Spheroid.Spikes.per.Burst.per.Electrode: key: 1 (active); 0 (inactive); for hitc Mean.Spheroid.Spikes.per.Burst: key: 1 (active); 0 (inactive); for hitc Spheroid.Burst.Frequency: key: 1 (active); 0 (inactive); for hitc Spheroid.Spike.Amplitude.90th.Percentile: key: 1 (active); 0 (inactive)
Summary of the method: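 7-week-differentiated BrainSpheres were plated on laminin/poly-D-lysine-coated HD-MEA chips and given 2 days to attach. Neural activity was recorded from the same regions of interest through a 13-day exposure, from day 0 onward. Ten network and general activity endpoints were derived per BrainSphere, with ≥3 biological replicates.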

2D rat cortical cultures [2] = conditions: cited from earlier work; for AC50: rNFA mc5
2D rat cortical cultures [3] = conditions: cited from earlier work
2D rat cortical cultures [4] = conditions: cytotoxicity LDH, cited from earlier work
[5] = AUC over 13-day exposure, tcplfit2
[6] = tcplfit2 BMD at benchmark response (1.349*SD of baseline controls)
[7] = tcplfit2 output ACC, activity cutoff in Supplemental Table 1
[8] = top of winning model, response normalized as percent of vehicle control, negative = decrease
Throughout, for hitc CCTE Shafer MEA dev active electrodes number: key: 1 (active); 0 (inactive).
Throughout, for hitc CCTE Shafer MEA dev burst duration mean: key: 1 (active); 0 (inactive).
Throughout, for hitc CCTE Shafer MEA dev burst rate: key: 1 (active); 0 (inactive).
Throughout, for hitc CCTE Shafer MEA dev bursting electrodes number: key: 1 (active); 0 (inactive).
Throughout, for hitc CCTE Shafer MEA dev correlation coefficient mean: key: 1 (active); 0 (inactive).
Throughout, for hitc CCTE Shafer MEA dev firing rate mean: key: 1 (active); 0 (inactive).
Throughout, for hitc CCTE Shafer MEA dev inter network spike interval mean: key: 1 (active); 0 (inactive).
Throughout, for hitc CCTE Shafer MEA dev interburst interval mean: key: 1 (active); 0 (inactive).
Throughout, for hitc CCTE Shafer MEA dev mutual information norm: key: 1 (active); 0 (inactive).
Throughout, for hitc CCTE Shafer MEA dev network spike duration std: key: 1 (active); 0 (inactive).
Throughout, for hitc CCTE Shafer MEA dev network spike number: key: 1 (active); 0 (inactive).
Throughout, for hitc CCTE Shafer MEA dev network spike peak: key: 1 (active); 0 (inactive).
Throughout, for hitc CCTE Shafer MEA dev per burst interspike interval: key: 1 (active); 0 (inactive).
Throughout, for hitc CCTE Shafer MEA dev per burst spike percent: key: 1 (active); 0 (inactive).
Throughout, for hitc CCTE Shafer MEA dev per network spike spike number mean: key: 1 (active); 0 (inactive).
Throughout, for hitc CCTE Shafer MEA dev per network spike spike percent: key: 1 (active); 0 (inactive).
Throughout, for hitc CCTE Shafer MEA dev spike duration mean: key: 1 (active); 0 (inactive).

For Brc1ccc(Oc2ccc(Br)cc2Br)c(Br)c1 [BDE- 47], the EC50 ([1]; 5th percentile across active AC50 values per chemical, read-out: Minimum potency) was 8.22 µM, the “Difference of minimum potency between BrainSphere MEA assay and rNFA” value ([1]; 5th percentile of AC50 values by chemical, above 0.5 = more potent in the rNFA) was “more than 0.5 log10 µM” and the “hitc Mean.Spheroid.Burst.Duration” value [1, 5] was 1. For the same compound, the “hitc Mean.Spheroid.Burst.ISI” value [1, 5] was 1, the “hitc Mean.Spheroid.Burst.Peak.Firing.Rate” value [1, 5] was 1 and the “hitc Mean.Spheroid.Firing.Rate” value [1, 5] was 1. For the same compound, the “hitc Mean.Spheroid.IBI” value [1, 5] was 0, the “hitc Mean.Spheroid.Nonburst.ISI” value [1, 5] was 0 and the “hitc Mean.Spheroid.Spikes.per.Burst” value [1, 5] was 1. For the same compound, the “hitc Mean.Spheroid.Spikes.per.Burst.per.Electrode” value [1, 5] was 1, the “hitc Spheroid.Burst.Frequency” value [1, 5] was 1 and the “hitc Spheroid.Spike.Amplitude.90th.Percentile” value [1, 5] was 1. The AC50 ([1]; listed as BDE-47, read-out: ac50 Mean.Spheroid.Burst.Duration) was 14.4 µM, the AC50 ([1]; listed as BDE-47, read-out: ac50 Mean.Spheroid.Burst.Peak.Firing.Rate) was 9.74 µM and the AC50 ([1]; listed as BDE-47, read-out: ac50 Mean.Spheroid.Firing.Rate) was 7.84 µM. For the same compound, the AC50 ([1]; listed as BDE-47, read-out: ac50 Spheroid.Burst.Frequency) was 8.92 µM, the AC50 ([1]; listed as BDE-47, read-out: ac50 Spheroid.Spike.Amplitude.90th.Percentile) was 13.4 µM and the AC50 ([1]; listed as BDE−47, read-out: ac50 Mean.Spheroid.Burst.Duration) was 14 µM. It also gave an AC50 ([1]; listed as BDE−47, read-out: ac50 Mean.Spheroid.Burst.Peak.Firing.Rate) of 9.7 µM, an AC50 ([1]; listed as BDE−47, read-out: ac50 Mean.Spheroid.Firing.Rate) of 7.8 µM and an AC50 ([1]; listed as BDE−47, read-out: ac50 Spheroid.Burst.Frequency) of 8.9 µM. For the same compound, the AC50 ([1]; listed as BDE−47, read-out: ac50 Spheroid.Spike.Amplitude.90th.Percentile) was 13 µM, the AC50 ([1]; read-out: ac50 Mean.Spheroid.Burst.ISI) was 13.4 µM and the AC50 ([1]; read-out: ac50 Mean.Spheroid.IBI) was 45 µM. For the same compound, the AC50 ([1]; read-out: ac50 Mean.Spheroid.Spikes.per.Burst) was 14.3 µM, the AC50 ([1]; read-out: ac50 Mean.Spheroid.Spikes.per.Burst.per.Electrode) was 8.93 µM and the EC50 ([1]; mean across active AC50 values per chemical, read-out: Mean potency) was 11.4 µM. For the same compound, the Percent active ([1]; metrics active out of the total number of metrics screened) was 80%, the “BMD Mean.Spheroid.Burst.Duration” value [1, 6] was 8.9 µM and the “BMD Mean.Spheroid.Burst.ISI” value [1, 6] was 7.8 µM. The “BMD Mean.Spheroid.Burst.Peak.Firing.Rate” value [1, 6] was 7.1 µM, the “BMD Mean.Spheroid.Firing.Rate” value [1, 6] was 7.9 µM and the “BMD Mean.Spheroid.IBI” value [1, 6] was 34 µM. For the same compound, the “BMD Mean.Spheroid.Nonburst.ISI” value [1, 6] was 48 µM, the “BMD Mean.Spheroid.Spikes.per.Burst” value [1, 6] was 12 µM and the “BMD Mean.Spheroid.Spikes.per.Burst.per.Electrode” value [1, 6] was 7 µM. For the same compound, the “BMD Spheroid.Burst.Frequency” value [1, 6] was 10 µM, the “BMD Spheroid.Spike.Amplitude.90th.Percentile” value [1, 6] was 6.7 µM and the “ACC Mean.Spheroid.Burst.Duration” value [1, 7] was 7.9 µM. The “ACC Mean.Spheroid.Burst.ISI” value [1, 7] was 4.8 µM, the “ACC Mean.Spheroid.Burst.Peak.Firing.Rate” value [1, 7] was 6.6 µM and the “ACC Mean.Spheroid.Firing.Rate” value [1, 7] was 11 µM. The “ACC Mean.Spheroid.IBI” value [1, 7] was 50 µM, the “ACC Mean.Spheroid.Nonburst.ISI” value [1, 7] was 55 µM and the “ACC Mean.Spheroid.Spikes.per.Burst” value [1, 7] was 17 µM. The “ACC Mean.Spheroid.Spikes.per.Burst.per.Electrode” value [1, 7] was 8.2 µM, the “ACC Spheroid.Burst.Frequency” value [1, 7] was 8.5 µM and the “ACC Spheroid.Spike.Amplitude.90th.Percentile” value [1, 7] was 9.5 µM. For the same compound, the “Top Mean.Spheroid.Burst.Duration” value [1, 8] was −93, the “Top Mean.Spheroid.Burst.ISI” value [1, 8] was −93 and the “Top Mean.Spheroid.Burst.Peak.Firing.Rate” value [1, 8] was −93. The “Top Mean.Spheroid.Firing.Rate” value [1, 8] was −92, the “Top Mean.Spheroid.IBI” value [1, 8] was −81 and the “Top Mean.Spheroid.Nonburst.ISI” value [1, 8] was −74. For the same compound, the “Top Mean.Spheroid.Spikes.per.Burst” value [1, 8] was −93, the “Top Mean.Spheroid.Spikes.per.Burst.per.Electrode” value [1, 8] was −92 and the “Top Spheroid.Burst.Frequency” value [1, 8] was −95. For the same compound, the “Top Spheroid.Spike.Amplitude.90th.Percentile” value [1, 8] was −22, the Hits ([1]; total number of active endpoints out of 10 MEA activity metrics, 13-day exposure) was 8 and the AC50 (2D rat cortical cultures [2]; aenm active_electrodes_number, read-out: ac50 CCTE_Shafer_MEA_dev_active_electrodes_number) was 10 µM. For the same compound, the AC50 (2D rat cortical cultures [2]; aenm bursting_electrodes_number, read-out: ac50 CCTE_Shafer_MEA_dev_bursting_electrodes_number) was 0.023 µM, the AC50 (2D rat cortical cultures [2]; aenm correlation_coefficient_mean, read-out: ac50 CCTE_Shafer_MEA_dev_correlation_coefficient_mean) was 4.26 µM and the AC50 (2D rat cortical cultures [2]; aenm mutual_information_norm, read-out: ac50 CCTE_Shafer_MEA_dev_mutual_information_norm) was 0.013 µM. For the same compound, the AC50 (2D rat cortical cultures [2]; aenm network_spike_peak, read-out: ac50 CCTE_Shafer_MEA_dev_network_spike_peak) was 10 µM, the AC50 (2D rat cortical cultures [2]; aenm per_burst_spike_percent, read-out: ac50 CCTE_Shafer_MEA_dev_per_burst_spike_percent) was 14.2 µM and the AC50 (2D rat cortical cultures [2]; aenm per_network_spike_spike_number_mean, read-out: ac50 CCTE_Shafer_MEA_dev_per_network_spike_spike_number_mean) was 4 µM. For the same compound, the AC50 (2D rat cortical cultures [2]; aenm per_network_spike_spike_percent, read-out: ac50 CCTE_Shafer_MEA_dev_per_network_spike_spike_percent) was 15.1 µM, the AC50 (2D rat cortical cultures [2]; aenm spike_duration_mean, read-out: ac50 CCTE_Shafer_MEA_dev_spike_duration_mean) was 15 µM and the “hitc CCTE_Shafer_MEA_dev_active_electrodes_number” value (2D rat cortical cultures [2]; rNFA mc5 hit call, aenm active_electrodes_number) was 1. The “hitc CCTE_Shafer_MEA_dev_burst_duration_mean” value (2D rat cortical cultures [2]; rNFA mc5 hit call, aenm burst_duration_mean) was 0, the “hitc CCTE_Shafer_MEA_dev_burst_rate” value (2D rat cortical cultures [2]; rNFA mc5 hit call, aenm burst_rate) was 0 and the “hitc CCTE_Shafer_MEA_dev_bursting_electrodes_number” value (2D rat cortical cultures [2]; rNFA mc5 hit call, aenm bursting_electrodes_number) was 1. The “hitc CCTE_Shafer_MEA_dev_correlation_coefficient_mean” value (2D rat cortical cultures [2]; rNFA mc5 hit call, aenm correlation_coefficient_mean) was 1, the “hitc CCTE_Shafer_MEA_dev_firing_rate_mean” value (2D rat cortical cultures [2]; rNFA mc5 hit call, aenm firing_rate_mean) was 0 and the “hitc CCTE_Shafer_MEA_dev_inter_network_spike_interval_mean” value (2D rat cortical cultures [2]; rNFA mc5 hit call, aenm inter_network_spike_interval_mean) was 0. For the same compound, the “hitc CCTE_Shafer_MEA_dev_interburst_interval_mean” value (2D rat cortical cultures [2]; rNFA mc5 hit call, aenm interburst_interval_mean) was 0, the “hitc CCTE_Shafer_MEA_dev_mutual_information_norm” value (2D rat cortical cultures [2]; rNFA mc5 hit call, aenm mutual_information_norm) was 1 and the “hitc CCTE_Shafer_MEA_dev_network_spike_duration_std” value (2D rat cortical cultures [2]; rNFA mc5 hit call, aenm network_spike_duration_std) was 0. For the same compound, the “hitc CCTE_Shafer_MEA_dev_network_spike_number” value (2D rat cortical cultures [2]; rNFA mc5 hit call, aenm network_spike_number) was 0, the “hitc CCTE_Shafer_MEA_dev_network_spike_peak” value (2D rat cortical cultures [2]; rNFA mc5 hit call, aenm network_spike_peak) was 1 and the “hitc CCTE_Shafer_MEA_dev_per_burst_interspike_interval” value (2D rat cortical cultures [2]; rNFA mc5 hit call, aenm per_burst_interspike_interval) was 0. The “hitc CCTE_Shafer_MEA_dev_per_burst_spike_percent” value (2D rat cortical cultures [2]; rNFA mc5 hit call, aenm per_burst_spike_percent) was 1, the “hitc CCTE_Shafer_MEA_dev_per_network_spike_spike_number_mean” value (2D rat cortical cultures [2]; rNFA mc5 hit call, aenm per_network_spike_spike_number_mean) was 1 and the “hitc CCTE_Shafer_MEA_dev_per_network_spike_spike_percent” value (2D rat cortical cultures [2]; rNFA mc5 hit call, aenm per_network_spike_spike_percent) was 1. For the same compound, the “hitc CCTE_Shafer_MEA_dev_spike_duration_mean” value (2D rat cortical cultures [2]; rNFA mc5 hit call, aenm spike_duration_mean) was 1, the “hitc CCTE_Shafer_MEA_dev_AB” value (2D rat cortical cultures [3]; rNFA mc5 hit call, cytotoxicity AlamarBlue) was 1 and the AC50 (2D rat cortical cultures [3]; read-out: ac50 CCTE_Shafer_MEA_dev_AB, rNFA mc5, cytotoxicity AlamarBlue) was 8.31 µM. The “Cytotoxicity in the resazurin assay of the rNFA (in words)” value (2D rat cortical cultures [3]; ref Brown et al. [2016], Carstens et al. [2022], Frank et al. [2017b], Shafer et al. [2019], ToxCast invitrodb (v4.2)) was “demonstrating cytotoxicity in the rNFA”, the “hitc CCTE_Shafer_MEA_dev_LDH” value (2D rat cortical cultures [4]; rNFA mc5 hit call) was 1 and the AC50 (2D rat cortical cultures [4]; read-out: ac50 CCTE_Shafer_MEA_dev_LDH, rNFA mc5) was 12.3 µM.
